Experiments:
[1] = biological target: T1, His tagged PTPN2 (TC45) protein (Homo sapiens, UniProt P17706); assay: Mobility shift assay (MSA) to determine potency of PTPN2 inhibitors; format: biochemical; conditions: 0.5 nM enzyme, 2 μM substrate
T1 construct: made in house
T1 sequence (P17706 with tags, fused parts or gaps isoform P17706-2): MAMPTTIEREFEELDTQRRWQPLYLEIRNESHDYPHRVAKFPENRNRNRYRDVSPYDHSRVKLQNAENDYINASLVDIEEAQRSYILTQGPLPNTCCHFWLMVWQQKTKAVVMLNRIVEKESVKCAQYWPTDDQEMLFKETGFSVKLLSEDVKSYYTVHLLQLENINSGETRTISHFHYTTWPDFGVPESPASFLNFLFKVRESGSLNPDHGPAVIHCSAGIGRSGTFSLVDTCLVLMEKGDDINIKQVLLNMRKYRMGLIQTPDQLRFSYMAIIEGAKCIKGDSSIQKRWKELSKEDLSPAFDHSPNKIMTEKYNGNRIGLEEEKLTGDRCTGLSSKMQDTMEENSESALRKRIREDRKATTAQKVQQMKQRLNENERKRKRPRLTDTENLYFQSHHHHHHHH
Procedure: Compound activity was determined using in house His tagged PTPN2 (TC45) protein (SEQ ID NO: 1) in an in vitro enzymatic reaction. The enzymatic assay used to determine activity was a mobility shift assay using a LabChip EZ Reader by Caliper Life Sciences. The enzymatic reaction was carried out in assay buffer (50 mM HEPES pH 7.5, 1 mM EGTA, 10 mM EDTA, 0.01% Tween® 20, and 2 mM DTT). The compounds were dispensed on a white 384 well ProxiPlate™ (PerkinElmer Catalog #6008289) plate using the Labcyte Echo at varying concentrations (12 point, 1:3 dilution). The enzyme (at 0.5 nM) was incubated with compound for 10 minutes at room temperature. Then the substrate (phosphorylated insulin receptor probe sequence: ((OG488)-(NH—CH2—CH2—O—CH2—CH2—O—CH2—CO)-T-R-D-I-(PY)-E-T-D-Y—Y—R—K—K—NH2) (SEQ ID NO: 2) was added at 2 μM to the plates and incubated for another 10 minutes at room temperature. Finally, a quench solution (water and 4-bromo-3-(2-oxo-2-propoxyethoxy)-5-(3-{[1-(phenylmethanesulfonyl)piperidin-4-yl]amino}phenyl)thiophene-2-carboxylic acid) was added to the plates, which were then run on the EZ Reader (excitation 488 nm, emission 530 nm) to measure % conversion (the amount of phosphorylated substrate which was de-phosphorylated by PTPN2). […] The % inhibition was then used to calculate the IC50 values.

[2] = biological target: T2, His tagged full-length PTPN1 protein (Homo sapiens, UniProt P18031); assay: Mobility shift assay (MSA) to determine potency of PTPN1 inhibitors; format: biochemical; conditions: 0.5 nM enzyme, 2 μM substrate
T2 construct: made in house
T2 sequence (P18031 with tags, fused parts or gaps): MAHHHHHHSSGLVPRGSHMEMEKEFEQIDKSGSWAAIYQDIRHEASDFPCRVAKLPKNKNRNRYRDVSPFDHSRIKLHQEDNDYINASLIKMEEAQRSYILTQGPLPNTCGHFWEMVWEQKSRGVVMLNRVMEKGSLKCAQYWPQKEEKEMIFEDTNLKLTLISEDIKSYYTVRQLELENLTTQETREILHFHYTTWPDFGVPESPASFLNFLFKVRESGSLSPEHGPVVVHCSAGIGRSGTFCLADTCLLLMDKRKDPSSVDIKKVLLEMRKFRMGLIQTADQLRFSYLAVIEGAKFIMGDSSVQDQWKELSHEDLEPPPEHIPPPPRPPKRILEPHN
Procedure: Compound activity was determined using in house His tagged full-length PTPN1 protein (SEQ ID NO: 3) in an in vitro enzymatic reaction. The enzymatic assay used to determine activity is a mobility shift assay using a LabChip EZ Reader by Caliper Life Sciences. The enzymatic reaction was carried out in assay buffer (50 mM HEPES pH 7.5, 1 mM EGTA, 10 mM EDTA. 0.01% Tween® 20, and 2 mM DTT). The compounds were dispensed on a white 384 well ProxiPlate™ (PerkinElmer Cat #6008289) plate using a Labcyte Echo® liquid handler at varying concentrations (12 point, 1:3 dilution). The enzyme (at 0.5 nM) was incubated with compound for 10 minutes at room temperature. Then the substrate (phosphorylated insulin receptor probe sequence: ((OG488)-(NH—CH2—CH2—O—CH2—CH2—O—CH2—CO)-T-R-D-I-(PY)-E-T-D-Y—Y—R—K—K—NH2) (SEQ ID NO: 2) was added at 2 μM to the plates and incubated for another 10 minutes at room temperature. Finally, a quench solution (water and 4-bromo-3-(2-oxo-2-propoxyethoxy)-5-(3-{[1-(phenylmethanesulfonyl)piperidin-4-yl]amino}phenyl)thiophene-2-carboxylic acid) was added to the plates, which were then run on the EZ Reader (excitation 488 nm, emission 530 nm) to measure % conversion (the amount of phosphorylated substrate which was de-phosphorylated by PTPN1). […] The % inhibition was then used to calculate the IC50 values.

IC50 [2] [µM] | Compound | IC50 [1] [µM]
< 0.001 | O=C1CN(c2c(O)cc3c(c2F)C[C@H](NCCC2CCC2)CC3)S(=O)(=O)N1 [Compound 201] | < 0.001
0.01 to 0.1 | O=C1CN(c2c(O)cc3c(c2F)C[C@H](NCC2CC(c4ccccc4)C2)CO3)S(=O)(=O)N1 (stereo partly drawn) [Compound 385, 5-[(3S)-5-fluoro-7-hydroxy-3-{[(3-phenylcyclobutyl)methyl]amino}-3,4-dihydro-2H-1-benzopyran-6-yl]-1λ^6,2,5-thiadiazolidine-1,1,3-trione] | 0.001 to 0.01
0.01 to 0.1 | CC1(CCNC(=O)N2CCc3cc(O)c(N4CC(=O)NS4(=O)=O)c(F)c3C2)CC1 [Compound 281] | 0.01 to 0.1
0.01 to 0.1 | Cc1nn(C)c(C)c1CN1CCC(N2CCc3cc(O)c(N4CC(=O)NS4(=O)=O)c(F)c3C2)CC1 [Compound 236] | > 0.1
0.01 to 0.1 | Cc1noc(C)c1CN1CCc2cc(O)c(N3CC(=O)NS3(=O)=O)c(F)c2C1 [Compound 208] | 0.01 to 0.1
> 0.1 | COCCN1CCc2cc(O)c(N3CC(=O)NS3(=O)=O)c(F)c2C1 [Compound 216] | > 0.1
0.01 to 0.1 | CC(C)(C)OC(=O)N1CCC(CN[C@@H]2COc3cc(O)c(N4CC(=O)NS4(=O)=O)c(F)c3C2)CC1 [Compound 384, tert-butyl 4-({[(3S)-5-fluoro-7-hydroxy-6-(1,1,4-trioxo-1λ^6,2,5-thiadiazolidin-2-yl)-3,4-dihydro-2H-1-benzopyran-3-yl]amino}methyl) piperidine-1-carboxylate] | 0.01 to 0.1
0.01 to 0.1 | CC(C)(CCN)CCN[C@@H]1CCc2cc(O)c(N3CC(=O)NS3(=O)=O)c(F)c2C1 [Compound 374, 5-{(7R)-7-[(5-amino-3,3-dimethylpentyl)amino]-1-fluoro-3-hydroxy-5,6,7,8-tetrahydronaphthalen-2-yl}-1λ^6,2,5-thiadiazolidine-1,1,3-trione] | 0.001 to 0.01
0.01 to 0.1 | CC(CN[C@@H]1CCc2cc(O)c(N3CC(=O)NS3(=O)=O)c(F)c2C1)C(F)(F)F (stereo partly drawn) [Compound 348, 5-{(7R)-1-fluoro-3-hydroxy-7-[(3,3,3-trifluoro-2-methylpropyl)amino]-5,6,7,8-tetrahydronaphthalen-2-yl}-1λ^6,2,5-thiadiazolidine-1,1,3-trione] | 0.001 to 0.01
0.01 to 0.1 | O=C1CN(c2c(O)cc3c(c2F)CN(CCCC2CC2)CC3)S(=O)(=O)N1 [Compound 159] | 0.01 to 0.1
0.01 to 0.1 | O=C1CN(c2c(O)cc3c(c2F)CCCO3)S(=O)(=O)N1 [Compound 111, 5-(5-fluoro-7-hydroxy-3,4-dihydro-2H-1-benzopyran-6-yl)-1λ^6,2,5-thiadiazolidine-1,1,3-trione] | 0.01 to 0.1
0.001 to 0.01 | O=C1CN(c2c(O)cc3c(c2F)CN(CC[C@H]2C[C@@H](OC(F)(F)F)C2)CC3)S(=O)(=O)N1 [Compound 231] | 0.01 to 0.1
0.001 to 0.01 | CC(C)(C)OC(=O)N[C@H]1CC[C@H](CCN2CCc3cc(O)c(N4CC(=O)NS4(=O)=O)c(F)c3C2)CC1 [Compound 300] | 0.001 to 0.01
0.01 to 0.1 | C[C@H](N)CN1CCc2cc(O)c(N3CC(=O)NS3(=O)=O)c(F)c2C1 [Compound 245] | 0.01 to 0.1
> 0.1 | O=C1CN(c2c(O)cc3c(c2F)CN(C2CNC2)CC3)S(=O)(=O)N1 [Compound 163] | 0.01 to 0.1
> 0.1 | CC(C)NCCN1CCc2cc(O)c(N3CC(=O)NS3(=O)=O)c(F)c2C1 [Compound 164] | 0.01 to 0.1

IC50 [2] [µM] | Compound | IC50 [1] [µM]
0.001 to 0.01 | CCCCN[C@@H]1CCc2cc(O)c(N3CC(=O)NS3(=O)=O)c(F)c2C1 [Compound 410, 5-[(7R)-7-(butylamino)-1-fluoro-3-hydroxy-5,6,7,8-tetrahydronaphthalen-2-yl]-1λ^6,2,5-thiadiazolidine-1,1,3-trione] | 0.001 to 0.01
0.01 to 0.1 | O=C1CN(c2c(O)cc3c(c2F)C[C@H](NCCC2CCOCC2)CC3)S(=O)(=O)N1 [Compound 365, 5-[(7R)-1-fluoro-3-hydroxy-7-{[2-(oxan-4-yl)ethyl]amino}-5,6,7,8-tetrahydronaphthalen-2-yl]-1λ^6,2,5-thiadiazolidine-1,1,3-trione] | 0.001 to 0.01
0.01 to 0.1 | O=C1CN(c2c(O)cc3c(c2F)CN(CCC2CCNCC2)CC3)S(=O)(=O)N1 [Compound 230] | > 0.1
0.01 to 0.1 | COCCCCN[C@@H]1CCc2cc(O)c(N3CC(=O)NS3(=O)=O)c(F)c2C1 [Compound 360, 5-{(7R)-1-fluoro-3-hydroxy-7-[(4-methoxybutyl)amino]-5,6,7,8-tetrahydronaphthalen-2-yl}-1λ^6,2,5-thiadiazolidine-1,1,3-trione] | 0.001 to 0.01
0.001 to 0.01 | Cc1nn(CC(F)F)c(C)c1CCN1CCc2cc(O)c(N3CC(=O)NS3(=O)=O)c(F)c2C1 [Compound 253] | 0.001 to 0.01
0.01 to 0.1 | O=C1CN(c2c(O)cc3c(c2F)C[C@H](NCc2cnco2)CC3)S(=O)(=O)N1 [Compound 364, 5-[(7R)-1-fluoro-3-hydroxy-7-{[(1,3-oxazol-5-yl)methyl]amino}-5,6,7,8-tetrahydronaphthalen-2-yl]-1λ^6,2,5-thiadiazolidine-1,1,3-trione] | 0.01 to 0.1
0.001 to 0.01 | CC1=C(CCN2CCc3cc(O)c(N4CC(=O)NS4(=O)=O)c(F)c3C2)C(C)(C)CCC1 [Compound 297] | < 0.001
0.001 to 0.01 | Cc1nn(C(C)(C)C)c(C)c1CCN1CCc2cc(O)c(N3CC(=O)NS3(=O)=O)c(F)c2C1 [Compound 266] | 0.001 to 0.01
0.01 to 0.1 | O=C1CN(c2c(O)cc3c(c2F)CN(CCC2CCOCC2)CC3)S(=O)(=O)N1 [Compound 214] | 0.01 to 0.1
0.01 to 0.1 | N#CC1CC1CN[C@@H]1CCc2cc(O)c(N3CC(=O)NS3(=O)=O)c(F)c2C1 (stereo partly drawn) [Compound 353, 2-({[(2R)-8-fluoro-6-hydroxy-7-(1,1,4-trioxo-1λ^6,2,5-thiadiazolidin-2-yl)-1,2,3,4-tetrahydronaphthalen-2-yl]amino}methyl)cyclopropane-1-carbonitrile] | 0.001 to 0.01
> 0.1 | CN(C)CCNC(=O)N1CCc2cc(O)c(N3CC(=O)NS3(=O)=O)c(F)c2C1 [Compound 280] | > 0.1
0.01 to 0.1 | CC(O)CCN[C@@H]1CCc2cc(O)c(N3CC(=O)NS3(=O)=O)c(F)c2C1 (stereo partly drawn) [Compound 369, 5-{(7R)-1-fluoro-3-hydroxy-7-[(3-hydroxybutyl)amino]-5,6,7,8-tetrahydronaphthalen-2-yl}-1λ^6,2,5-thiadiazolidine-1,1,3-trione] | 0.001 to 0.01
0.01 to 0.1 | O=C1CN(c2c(O)cc3c(c2F)CN(CCCc2ccc(F)cc2)CC3)S(=O)(=O)N1 [Compound 299] | 0.001 to 0.01
0.01 to 0.1 | O=C1CN(c2c(O)cc3c(c2F)CN(CCCO)CC3)S(=O)(=O)N1 [Compound 244] | 0.01 to 0.1
> 0.1 | CC(C)(C)c1ccc(CCCN2CCc3cc(O)c(N4CC(=O)NS4(=O)=O)c(F)c3C2)cc1 [Compound 301] | 0.01 to 0.1
